Measured values as given in the supplement of paper PMC5908809.

What was measured:
[1] = system: normal NK cells expanded with K562-aAPC; experiment: percent inhibition of viability; higher = more inhibition; details: 72 h, IL-2 2.5 ng/mL
Protocol: (§1)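 Drug sensitivity and resistance testing on K562-aAPC-expanded normal NK cells: 5 concentrations (10-fold steps over a 10,000-fold range), 72 h at 37 °C, viability by CellTiter-Glo normalised to DMSO and benzethonium chloride controls; DSS from the fitted curve.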

DERL-7 (IL-2 2.5 ng/mL) [2] = experiment: as above; details: 72 h
IMC-1 (IL-2 20 ng/mL) [3] = experiment: as above; details: 72 h
KAI3 (IL-2 2.5 ng/mL) [4] = experiment: as above; details: 72 h
KHYG-1 (IL-2 2.5 ng/mL) [5] = experiment: as above; details: 72 h
NK-92 (IL-2 2.5 ng/mL) [6] = experiment: as above; details: 72 h
NK-YS (IL-2 2.5 ng/mL) [7] = experiment: as above; details: 72 h
NKL (IL-2 2.5 ng/mL) [8] = experiment: as above; details: 72 h
SNK-6 (IL-2 2.5 ng/mL) [9] = experiment: as above; details: 72 h
YT (IL-2 2.5 ng/mL) [10] = experiment: as above; details: 72 h
[11] = system: normal primary NK cells, pool 1 (3 donors) (IL-2 2.5 ng/mL); experiment: as above; details: 72 h
[12] = system: normal primary NK cells, pool 1 (3 donors), resting (IL-2 0 ng/mL); experiment: as above; details: 72 h
[13] = system: normal primary NK cells, pool 2 (3 donors) (IL-2 2.5 ng/mL); experiment: as above; details: 72 h
[14] = system: normal primary NK cells, pool 3 (3 donors) (IL-2 2.5 ng/mL); experiment: as above; details: 72 h
[15] = system: normal NK cells expanded with K562-aAPC; experiment: drug sensitivity score (DSS) (DSS units); higher = more sensitive; extreme values may be limits of the assay; details: 72 h; IL-2 2.5 ng/mL
Protocol: as §1

DERL-7 (IL-2 2.5 ng/mL) [16] = experiment: as above; details: 72 h
IMC-1 (IL-2 20 ng/mL) [17] = experiment: as above; details: 72 h
KAI3 (IL-2 2.5 ng/mL) [18] = experiment: as above; details: 72 h
KHYG-1 (IL-2 2.5 ng/mL) [19] = experiment: as above; details: 72 h
NK-92 (IL-2 2.5 ng/mL) [20] = experiment: as above; details: 72 h
NK-YS (IL-2 2.5 ng/mL) [21] = experiment: as above; details: 72 h
NKL (IL-2 2.5 ng/mL) [22] = experiment: as above; details: 72 h
SNK-6 (IL-2 2.5 ng/mL) [23] = experiment: as above; details: 72 h
YT (IL-2 2.5 ng/mL) [24] = experiment: as above; details: 72 h
[25] = system: normal primary NK cells, pool 1 (3 donors) (IL-2 2.5 ng/mL); experiment: as above; details: 72 h
[26] = system: normal primary NK cells, pool 1 (3 donors), resting (IL-2 0 ng/mL); experiment: as above; details: 72 h
[27] = system: normal primary NK cells, pool 2 (3 donors) (IL-2 2.5 ng/mL); experiment: as above; details: 72 h
[28] = system: normal primary NK cells, pool 3 (3 donors) (IL-2 2.5 ng/mL); experiment: as above; details: 72 h

OC[C@H]1O[C@@H](n2cnc3c2N=CNC[C@H]3O)C[C@@H]1O [Pentostatin] (max concentration tested 10000 nM)
percent inhibition of viability [%]
Details	1 nM	10 nM	100 nM	1000 nM	10000 nM
DERL-7 (IL-2 2.5 ng/mL) [2]	-9.03	2.32	-10.5	-5.23	-4.31
IMC-1 (IL-2 20 ng/mL) [3]	0.7	-6.1	1.22	0.79	10.6
KAI3 (IL-2 2.5 ng/mL) [4]	-10.6	-16.4	-2.67	-7.59	-0.36
KHYG-1 (IL-2 2.5 ng/mL) [5]	-3.74	-3.32	0.86	5.07	5.26
NK-92 (IL-2 2.5 ng/mL) [6]	-4	-10.1	-2.52	-6.44	6.47
NK-YS (IL-2 2.5 ng/mL) [7]	-2.76	-5.13	-3.05	6.9	9.33
NKL (IL-2 2.5 ng/mL) [8]	-20.9	-21.1	-17.4	-6.93	-7.04
SNK-6 (IL-2 2.5 ng/mL) [9]	4.13	3.89	8.33	34	20.9
YT (IL-2 2.5 ng/mL) [10]	-4.24	-0.68	3.36	4.3	8.72
[1]	0.75	-2.98	3.38	6.95	8.99
[11]	-3.11	3.31	-8.32	-5.87	1.1
[12]	-7.98	1.6	-13.1	-28.3	-7.61
[13]	-9.21	-12.2	-5.88	-13.3	1.05
[14]	-11.3	-12.5	-7.39	-4.5	11.5

Details	drug sensitivity score
DERL-7 (IL-2 2.5 ng/mL) [16]	0
IMC-1 (IL-2 20 ng/mL) [17]	0
KAI3 (IL-2 2.5 ng/mL) [18]	0
KHYG-1 (IL-2 2.5 ng/mL) [19]	0
NK-92 (IL-2 2.5 ng/mL) [20]	0
NK-YS (IL-2 2.5 ng/mL) [21]	0
NKL (IL-2 2.5 ng/mL) [22]	0
SNK-6 (IL-2 2.5 ng/mL) [23]	7.04
YT (IL-2 2.5 ng/mL) [24]	0
[15]	0
[25]	0
[26]	0
[27]	0
[28]	0

CC[C@@H]1C(=O)OC[C@@H]1Cc1cncn1C [Pilocarpine] (max concentration tested 40000 nM)
percent inhibition of viability [%]
Details	4 nM	40 nM	400 nM	4000 nM	40000 nM
DERL-7 (IL-2 2.5 ng/mL) [2]	1.42	-1.75	0.14	2.27	-9.94
IMC-1 (IL-2 20 ng/mL) [3]	0.9	2.74	3.37	7.24	10.8
KAI3 (IL-2 2.5 ng/mL) [4]	-4.19	-2.59	-0.69	0.97	10.8
KHYG-1 (IL-2 2.5 ng/mL) [5]	-5.1	0.26	0.29	8.1	13.5
NK-92 (IL-2 2.5 ng/mL) [6]	-3.6	-6.46	-0.49	3.22	17.6
NK-YS (IL-2 2.5 ng/mL) [7]	-0.26	2	1.94	9.78	16
NKL (IL-2 2.5 ng/mL) [8]	0.76	-2.78	1.71	1.49	4.41
SNK-6 (IL-2 2.5 ng/mL) [9]	7.63	1.2	25.3	7.63	17.4
YT (IL-2 2.5 ng/mL) [10]	0.63	-1.77	4.55	7.37	12.4
[1]	-3.76	-0.92	0.04	4.29	9.84
[11]	-1.79	4.63	-1.46	6	3.9
[12]	2.62	11.3	-11.4	2.11	-5.32
[13]	-4.81	-4.05	-0.5	4.72	-5.35
[14]	-10.7	-14.3	-6.23	1.83	-3.82

Details	drug sensitivity score
DERL-7 (IL-2 2.5 ng/mL) [16]	0
IMC-1 (IL-2 20 ng/mL) [17]	0
KAI3 (IL-2 2.5 ng/mL) [18]	0.01
KHYG-1 (IL-2 2.5 ng/mL) [19]	0.51
NK-92 (IL-2 2.5 ng/mL) [20]	0.79
NK-YS (IL-2 2.5 ng/mL) [21]	0.76
NKL (IL-2 2.5 ng/mL) [22]	0
SNK-6 (IL-2 2.5 ng/mL) [23]	0
YT (IL-2 2.5 ng/mL) [24]	0.14
[15]	0
[25]	0
[26]	0
[27]	0
[28]	0
